The values that follow come from ChEMBL document CHEMBL1201862, “PubChem BioAssay data set” (2004).

Each structure is given as a SMILES string. Calls of active or inactive are those of the source.

Experiment [1] deals with T1, Carboxy-terminal domain RNA polymerase II polypeptide A small phosphatase 1 (Homo sapiens, UniProt Q9GZU7).
T1 sequence (Q9GZU7 whole entry): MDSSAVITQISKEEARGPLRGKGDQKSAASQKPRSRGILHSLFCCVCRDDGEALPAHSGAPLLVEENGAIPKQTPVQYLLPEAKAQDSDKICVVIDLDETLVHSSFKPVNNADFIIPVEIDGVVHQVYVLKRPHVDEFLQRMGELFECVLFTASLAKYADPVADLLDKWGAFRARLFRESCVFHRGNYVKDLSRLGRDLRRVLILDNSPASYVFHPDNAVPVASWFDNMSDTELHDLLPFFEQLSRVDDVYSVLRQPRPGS
In words: CTDSP1 inhibitors, concentration-response, biochemical, absorbance readout, ultra-high-throughput screen actives (AID 540297). Type of experiment: functional.

Another experiment has as its system H9c2. In words: cells. It counts as functional, cell-based. As to conditions: Rattus norvegicus, H9c2, Myocardium.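 Further: confirmatory concentration-response retest of ultra-high-throughput screening hits for modulation of myocardial damage; cell death induced by hydrogen peroxide oxidative stress; compound pretreatment for 60 min then peroxide exposure for 2 h; potency is for protecting the cells against peroxide damage rather than for killing them.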
Experiment [2] in a line: Luminescence Cell-Based Dose Confirmation HTS to Identify Activators of 5'UTR Stem-Loop Driven Alpha-Synuclein mRNA Translation in H4 Neuroglioblastoma Cells. [Related pubchem assays: 1829 (Project Summary), 1814 (Primary HTS)]. It counts as functional.
The next experiment relates to H4. The experiment in a line: Luminescence Cell-Based Dose Response HTS to Identify Activators of 5'UTR Stem-Loop Driven Prion Protein mRNA Translation in H4 Neuroglioblastoma Cells. [Related pubchem assays: 1829 (Project Summary), 1814 (Primary HTS)]. It counts as functional. The conditions noted are these: Homo sapiens.
Experiment [3] in a line: Luminescence Cell-Based Dose Response HTS to Identify Activators of Luciferase Translation or Activity in H4 […] Cells. [Related pubchem assays: 1829 (Project Summary), 1814 (Primary HTS)]. It counts as functional.
Experiment [4] addresses T2, Polyadenylate-binding protein 1 (Homo sapiens, UniProt P11940). The experiment in a line: MLLE domain peptide-binding blockers, IC50 – biochemical, fluorescence polarization, FITC-PAM2 peptide, dose response (AID 602259). It counts as functional. As to conditions: read-out: IC50_Mean.
For experiment [5], the target named is T2, Polyadenylate-binding protein 1. The experiment in a line: MLLE binding blockers, Cy5 peptide tracer – biochemical, fluorescence polarization, Cy5-PAM2 peptide, secondary, miRNA deadenylation inhibitor project, dose response (AID 602260). It counts as functional. The conditions noted are these: read-out: IC50_Mean. On the technique in general: Fluorescence polarisation rises when a labelled molecule tumbles more slowly, as on binding a larger partner.

A short description of experiment [6]: non-specific 3'UTR reporter inhibition in Clone20-Shn3RL – cell-based, Renilla luciferase, cherry-picked, counter-screen for Shn3 inhibitor project, dose response (AID 624133). Type of experiment: functional. (In general: Counterscreens check selectivity or assay interference.)
Experiment [7] concerns the target T3, High affinity choline transporter 1 (Homo sapiens, UniProt Q9GZV3).
T3 sequence (Q9GZV3 whole entry): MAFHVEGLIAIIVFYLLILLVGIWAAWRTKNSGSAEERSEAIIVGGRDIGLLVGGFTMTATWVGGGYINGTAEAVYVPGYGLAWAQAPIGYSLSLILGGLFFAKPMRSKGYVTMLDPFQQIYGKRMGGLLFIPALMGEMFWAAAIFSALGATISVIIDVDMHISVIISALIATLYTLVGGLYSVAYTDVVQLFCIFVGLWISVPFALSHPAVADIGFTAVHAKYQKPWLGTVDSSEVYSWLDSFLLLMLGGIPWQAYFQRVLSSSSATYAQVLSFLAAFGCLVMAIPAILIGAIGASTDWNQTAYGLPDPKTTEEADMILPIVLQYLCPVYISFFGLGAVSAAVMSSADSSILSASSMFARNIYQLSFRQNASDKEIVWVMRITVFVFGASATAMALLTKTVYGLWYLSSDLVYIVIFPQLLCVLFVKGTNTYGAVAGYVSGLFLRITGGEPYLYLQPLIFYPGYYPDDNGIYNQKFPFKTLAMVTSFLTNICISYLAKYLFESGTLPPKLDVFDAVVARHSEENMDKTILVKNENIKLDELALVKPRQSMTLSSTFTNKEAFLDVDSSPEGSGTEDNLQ
The experiment in a line: human choline transporter blockers, potency – cell-based, 5-point CRC, membrane potential dye, dose response (AID 504840). It counts as functional.

Experiment [8] in a line: reduction of Shn3 3'UTR-driven luciferase in osteoblasts – cell-based, Clone20 osteoblasts, firefly luciferase, cherry-picked, dose response (AID 624132).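 Further: firefly luciferase luminescence from reporter carrying the Shn3 3'UTR in osteoblasts.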 It counts as functional.
Experiment [9] is described as follows: loss of viability in HepG2 cells – cell-based, CellTiter-Glo, cherry-picked, cytotoxicity control for Shn3 inhibitor project, dose response (AID 624134). It counts as functional. (In general: ATP-based viability assays read luminescence as a measure of living cells.)
For experiment [10], the target named is T4, Corticotropin-releasing factor receptor 2/Corticotropin-releasing factor-binding protein (Homo sapiens, UniProt P24387+Q13324).
T4 sequence (Q13324 whole entry): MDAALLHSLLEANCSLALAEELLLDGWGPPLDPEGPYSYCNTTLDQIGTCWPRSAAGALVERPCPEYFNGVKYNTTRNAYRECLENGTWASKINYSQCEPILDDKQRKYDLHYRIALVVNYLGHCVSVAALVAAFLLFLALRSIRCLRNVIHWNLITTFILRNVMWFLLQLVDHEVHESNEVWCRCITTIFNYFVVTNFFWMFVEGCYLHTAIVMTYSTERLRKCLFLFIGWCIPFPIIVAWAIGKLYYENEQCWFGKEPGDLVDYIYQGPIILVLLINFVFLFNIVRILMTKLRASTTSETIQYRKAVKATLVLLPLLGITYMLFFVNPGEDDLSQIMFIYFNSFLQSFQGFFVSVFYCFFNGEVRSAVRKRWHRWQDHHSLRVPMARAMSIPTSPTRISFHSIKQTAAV
T4 sequence (P24387 whole entry): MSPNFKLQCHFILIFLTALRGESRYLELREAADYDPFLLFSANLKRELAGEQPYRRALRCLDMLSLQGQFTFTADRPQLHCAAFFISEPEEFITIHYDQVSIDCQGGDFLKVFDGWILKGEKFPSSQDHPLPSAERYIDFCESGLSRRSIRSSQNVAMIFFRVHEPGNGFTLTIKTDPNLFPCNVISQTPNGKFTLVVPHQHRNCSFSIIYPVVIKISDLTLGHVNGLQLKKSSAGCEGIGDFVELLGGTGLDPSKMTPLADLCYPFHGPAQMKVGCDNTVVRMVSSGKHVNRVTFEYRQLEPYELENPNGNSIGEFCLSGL
The experiment in a line: Dose Response confirmation of uHTS hits for small molecule antagonists of the CRF-binding protein and CRF-R2 receptor complex. Type of experiment: functional. As to conditions: read-out: IC50_Mean.

The target of experiment [11] is T4, Corticotropin-releasing factor receptor 2/Corticotropin-releasing factor-binding protein. The experiment in a line: activators of CRF receptor 2 with binding protein – uHTS hits, confirmation (AID 602473). Type of experiment: functional. The conditions noted are these: read-out: EC50_Mean.

T2 sequence (P11940 whole entry, the tested form may be a part): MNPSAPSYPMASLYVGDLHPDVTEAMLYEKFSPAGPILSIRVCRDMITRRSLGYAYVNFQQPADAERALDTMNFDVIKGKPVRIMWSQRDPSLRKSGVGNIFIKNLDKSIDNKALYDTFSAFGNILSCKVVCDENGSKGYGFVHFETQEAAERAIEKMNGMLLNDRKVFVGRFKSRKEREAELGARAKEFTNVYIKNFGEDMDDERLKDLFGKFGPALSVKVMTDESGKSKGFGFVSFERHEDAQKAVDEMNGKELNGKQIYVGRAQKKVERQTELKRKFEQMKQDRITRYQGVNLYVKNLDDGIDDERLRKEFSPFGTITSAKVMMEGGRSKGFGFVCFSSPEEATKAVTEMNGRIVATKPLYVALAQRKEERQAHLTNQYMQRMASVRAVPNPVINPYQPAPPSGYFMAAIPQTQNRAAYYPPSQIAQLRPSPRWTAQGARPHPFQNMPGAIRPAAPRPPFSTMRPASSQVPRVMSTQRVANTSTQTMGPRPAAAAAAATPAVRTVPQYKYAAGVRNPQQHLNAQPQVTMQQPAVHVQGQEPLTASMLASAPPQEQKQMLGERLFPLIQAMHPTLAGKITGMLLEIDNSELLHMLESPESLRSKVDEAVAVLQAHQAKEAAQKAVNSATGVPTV

In the case of `COc1ccc(/C=C/C(=O)OCC(=O)NCc2ccco2)cc1OC`, the IC50 in experiment [1] was 14.5 µM (active).
Consider `Cn1c(=O)c(NC(=O)c2ccccc2)c2n(c1=S)CCCCC2`, for which the IC50 in [1] was 14.3 µM (active).
The same measure, in the same setting: under `Cn1c(NN)nc2c1c(=O)n(Cc1ccccc1)c(=O)n2C` stands 25.2 µM (active).
Consider `CNC(=O)c1cccc(NC(=O)c2cc(-c3ccccc3)nc3c2cnn3C(C)C)c1`, for which the IC50 in the experiment with H9c2 is > 79 µM (inactive).
Take `O=C(NCC(=O)N(Cc1cccs1)C(C(=O)NC1CCCCC1)c1ccco1)c1cccs1` (stereo not given): in the experiment with H9c2, the IC50 was 8.09 µM (active).
As to `CC(C)(C)c1ccc(C(=O)NNC(=O)C2CCCCC2)cc1`, the figures for the EC50 (in experiment [2]; with H4; in [3]) were 19.6 µM (active), 59.3 µM (active) and 30.7 µM (active), respectively.
Consider `Cc1cc(Cl)ccc1N=C(S)Nc1cccnc1`, for which the IC50 in [4] and in [5] was > 66 µM (inactive) in each case.
Regarding `O=[N+]([O-])c1cccn2cc(-c3ccc(Br)cc3)nc12`, in experiment [1], the IC50 is 9.74 µM (active). For the same compound, the EC50 with H4 is > 120 µM (not active).
With `COCCn1c(CN2CCN(c3cccc(Cl)c3)CC2)nc2c1c(=O)n(C)c(=O)n2C`, the AC50 (commonly the midpoint of the concentration-response curve, whichever way the signal moves) in experiment [6] was 11 µM (active); in experiment [8], 10.7 µM (active); in experiment [9] it was 52.3 µM (active). For the same compound, the IC50 in experiment [7] is 12.3 µM (active).
In the case of `COc1ccc(Cl)cc1N=C(S)Nc1ccccc1F`, the IC50 in experiment [4] and in experiment [5] was > 66 µM (inactive) throughout.
Consider `CN1/C(=C\C(=O)c2cccc([N+](=O)[O-])c2)Sc2ccccc21`, for which the IC50 in experiment [4] and in experiment [5] was > 66 µM (inactive) each time.
Consider `COc1ccccc1OCCSc1nc(O)c2ccccc2n1`, for which the IC50 in the experiment on H9c2 is 14.4 µM (active).
For `Cc1nn(C)c(C)c1NC(=O)c1cc2nc(-c3ccco3)cc(C(F)(F)F)n2n1`, the IC50 in experiment [10] is > 47.1 µM (inactive). Moreover, the EC50 in experiment [11] was > 53 µM (inactive).
Turning to `COc1cccc(OC)c1C(=O)Nc1ccc(Br)c(C(=O)c2ccccc2)c1`, in the experiment on H9c2, the IC50 is 31.1 µM (inactive).
`CCOc1cccc(-c2csc(C3COc4ccccc4O3)n2)c1` (stereo not given): the EC50 in experiment [2] is 13.4 µM (active); in the experiment on H4, 37.5 µM (active).
`COc1ccc(-c2cc(C(F)F)n3ncc(C(=O)Nc4ccc(C(=O)N5CCOCC5)cc4)c3n2)cc1`: the IC50 with H9c2 is > 79 µM (inactive).
With `O=[N+]([O-])c1ccc(O)c(CSc2nnnn2-c2ccccc2)c1`, the IC50 in [7] was 12 µM (active).
As to `CCc1nc2cccnc2n1-c1ccc(C(=O)O)cc1`, the IC50 was 49.5 µM (inactive) in experiment [4] and > 66 µM (inactive) in experiment [5].
Consider `c1ccc(NC2=Nc3ccccc3CS2)cc1`, for which the EC50 in [2] was 0.465 µM (active); in experiment [3], 0.409 µM (active).
For the compound `O=[N+]([O-])c1ccc(C(O)CSC(=S)N2CCCCC2)cc1` (stereo not given), the figures for the EC50 (in experiment [2]; in the experiment with H4; in [3]) were 7.46 µM (active), 32.7 µM (active) and 56.4 µM (active), respectively.
As to `COC(=O)CC(NC(=S)NC(=O)c1ccccc1)c1ccc(Br)cc1` (stereo not given), the IC50 in [4] and in experiment [5] was > 66 µM (inactive) each time.
As for `CSc1nc2ncc(-c3ccsc3)c(N)n2n1`, the values for the EC50 (in experiment [2]; in the experiment on H4; in experiment [3]) were > 120 µM (not active), 27.2 µM (active) and 19.5 µM (active), respectively.
As to `COc1cccc(NC(=O)COC(=O)c2ccc(S(=O)(=O)NCc3ccco3)cc2)c1`, the IC50 in [1] was 7.96 µM (active).
As to `Cn1c2c(c(=O)[nH]c1=O)C(c1ccc(O)cc1)C1=C(O)c3ccccc3C1=N2` (stereo not given), the EC50 (in experiment [2]; in the experiment with H4; in [3]) was > 120 µM (not active) throughout.
With `NCCCCCc1nnc(SCc2ccc(Cl)c(Cl)c2)o1`, in experiment [7], the IC50 is 13.2 µM (active).
Regarding `O=C(NC1=NCCS1)c1cccs1`, the IC50 in experiment [4] and in [5] was > 66 µM (inactive) throughout.
As to `O=C1c2ccccc2C2C3=C(O)CC(c4ccco4)CC3=Nc3ccccc3N12` (stereo not given), the figures for the EC50 (in [2]; in the experiment on H4; in experiment [3]) were > 120 µM (not active), > 120 µM (not active) and 41 µM (active), respectively.
For `Cc1cc(C)nc(N2N=C(CSc3ccc(Cl)cc3)CC2=O)n1`, the IC50 in [7] is 15.1 µM (active).
For the compound `CC(c1nc(O)c2ccccc2n1)N(C)c1ccc2ccccc2c1` (stereo not given), the IC50 in experiment [4] and in experiment [5] was > 66 µM (inactive) in each case.
As to `COc1cc2c(C(=O)NCc3ccccn3)cn(CC(C)C)c(=O)c2cc1OC`, the IC50 with H9c2 was > 79 µM (inactive).
On to `Cc1ccc(C(C)C)c(OCC(=O)NS(=O)(=O)c2ccc(Cl)cc2)c1`, for which the IC50 in [7] is 11.8 µM (active).
Turning to `CCN1C(=O)[C@H]2[C@H]3CN=C(SCC4CC4)N3[C@@](Cc3ccccc3)(C(=O)OC)[C@H]2C1=O`, the IC50 in [1] is 12.1 µM (active).
`Cc1ccc2c(C)c(C(=O)N3CCC(N4CCC(C(=O)NC5CC5)CC4)CC3)oc2c1`: the IC50 in [7] was 14.5 µM (active).
As to `NC(=S)N/N=C1/CCSc2ccc3ccccc3c21`, in experiment [7], the IC50 was 6.48 µM (active).
As for `N#C/C(=N\Nc1cccc(Cl)c1)C(=O)c1ccccc1`, the EC50 in experiment [11] is > 53 µM (inactive). Besides, the IC50 in experiment [7] is 13.8 µM (active).
